# Source: patent publication US9802899B2, “Heterocyclic compounds as pesticides” (BAYER CROPSCIENCE AG, priority 2012, dated 2017)
# Experiment: Determination of the log P values by HPLC (formic acid method)
# Assay type: physicochemical
# Settings: reversed-phase HPLC column (C 18), reversed-phase column (C 18), acidic range (pH 3.4), 55° C.
# Experimental: 1) Description of Method for Determination of the Log P Values (Formic Acid Method)
# Eluents for determination in the acidic range (pH 3.4):
# Eluent A: acetonitrile+1 ml of formic acid/liter. Eluent B: water+0.9 ml of formic acid/liter.
# The lambda max values were determined in the maxima of the chromatographic signals using the UV spectra from 200 nm to 400 nm.
row,chromatographic logP,Compound
1,3.4,"O=C(Nc1ccn(-c2nccc(-c3ccc(F)cc3)c2F)n1)c1ccccc1C(F)(F)F [Compound I-1-640, N-{1-[3-Fluoro-4-(4-fluorophenyl)pyridin-2-yl]-1H-pyrazol-3-yl}-2-(trifluoromethyl)benzamide]"
2,1.38,"Nc1cc(F)c(-n2ccc(NC(=O)c3ccccc3C(=O)O)n2)c(F)c1 [Compound I-1-643, 2-{[1-(4-Amino-2,6-difluorophenyl)-1H-pyrazol-3-yl]carbamoyl}benzoic acid]"
3,2.38,"O=C(Nc1cnn(-c2ncc(F)cc2F)n1)c1ccccc1C(F)(F)F [Compound I-2-63, N-[2-(3,5-Difluoropyridin-2-yl)-2H-1,2,3-triazol-4-yl]-2-(trifluoromethyl)benzamide]"

# Same assay, conditions: reversed-phase column (C 18), acidic range (pH 3.4), 55° C.
row,log P,Compound
1,2.55,N#Cc1cc(F)ccc1-n1ccc(NC(=O)c2ccccc2Br)n1 [Compound I-1-629]
2,2.52,N#Cc1cc(F)ccc1-n1ccc(NC(=O)c2ccccc2Cl)n1 [Compound I-1-630]
3,1.91,N#Cc1cc(F)ccc1-n1ccc(NC(=O)c2cccnc2Cl)n1 [Compound I-1-631]
4,2.64,N#Cc1cc(F)ccc1-n1ccc(NC(=O)c2c(F)cccc2C(F)(F)F)n1 [Compound I-1-632]
5,2.73,N#Cc1cc(F)ccc1-n1ccc(NC(=O)c2ccsc2I)n1 [Compound I-1-633]
6,2.57,N#Cc1cc(F)ccc1-n1ccc(NC(=O)c2ccccc2I)n1 [Compound I-1-634]
7,2.80,O=C(Nc1ccn(-c2ncc(F)cc2F)n1)c1ccccc1CC(F)(F)F [Compound I-1-635]
8,2.31,O=C(Nc1ccn(-c2ncc(F)cc2F)n1)C1=C(C(F)F)OCCS1 [Compound I-1-636]
9,2.50,O=C(Nc1ccn(-c2ncc(F)cc2F)n1)c1c(F)cccc1Br [Compound I-1-637]
10,2.70,O=C(Nc1ccn(-c2ncc(F)cc2F)n1)c1c(Cl)cccc1C(F)(F)F [Compound I-1-638]
11,2.16,CC1=C(C(=O)Nc2ccn(-c3ncc(F)cc3F)n2)OCCO1 [Compound I-1-639]
12,3.40,O=C(Nc1ccn(-c2nccc(-c3ccc(F)cc3)c2F)n1)c1ccccc1C(F)(F)F [Compound I-1-642]
13,0.99,Cn1cncc1C(=O)Nc1ccn(-c2c(F)cccc2F)n1 [Compound I-1-644]
14,2.41,Cn1cccc1C(=O)Nc1ccn(-c2c(F)cccc2F)n1 [Compound I-1-645]
15,0.70,Cn1cncc1C(=O)Nc1ccn(-c2ncc(F)cc2F)n1 [Compound I-1-646]
16,2.16,Cn1cccc1C(=O)Nc1ccn(-c2ncc(F)cc2F)n1 [Compound I-1-647]
17,3.03,O=C(Nc1cnn(-c2ccccc2Cl)n1)c1ccccc1I [Compound I-2-3]
18,2.54,O=C(Nc1cnn(-c2ccccc2Cl)n1)c1cccnc1C(F)(F)F [Compound I-2-4]
19,2.20,O=C(Nc1cnn(-c2ccccc2Cl)n1)c1cccnc1Cl [Compound I-2-5]
20,3.03,O=C(Nc1cnn(-c2ccccc2Br)n1)c1ccccc1C(F)(F)F [Compound I-2-6]
21,2.58,O=C(Nc1cnn(-c2ccccc2Br)n1)c1cccnc1C(F)(F)F [Compound I-2-8]
22,2.29,O=C(Nc1cnn(-c2ccccc2Br)n1)c1cccnc1Cl [Compound I-2-9]
23,2.60,O=C(Nc1nn(-c2ncccc2Cl)nc1Cl)c1ccccc1C(F)(F)F [Compound I-2-11]
24,2.22,O=C(Nc1cnn(-c2ncccc2Cl)n1)c1ccccc1Cl [Compound I-2-12]
25,2.26,O=C(Nc1cnn(-c2ncccc2Cl)n1)c1ccccc1Br [Compound I-2-13]
26,2.36,O=C(Nc1cnn(-c2ncccc2Cl)n1)c1ccccc1I [Compound I-2-14]

row,log P,Compound
1,2.09,O=C(Nc1cnn(-c2ncccc2Cl)n1)c1c(F)cccc1F [Compound I-2-15]
2,2.19,Cn1nc(C(F)(F)F)c(C(=O)Nc2cnn(-c3ncccc3Cl)n2)c1F [Compound I-2-16]
3,2.46,O=C(Nc1cnn(-c2ncccc2Br)n1)c1ccccc1C(F)(F)F [Compound I-2-17]
4,2.43,O=C(Nc1cnn(-c2ncccc2Br)n1)c1ccccc1I [Compound I-2-18]
5,3.21,O=C(Nc1nn(-c2ccccc2Cl)nc1Cl)c1ccccc1C(F)(F)F [Compound I-2-19]
6,4.87,O=C(c1ccccc1C(F)(F)F)N(C(=O)c1ccccc1C(F)(F)F)c1nn(-c2ccccc2Cl)nc1Cl [Compound I-2-20]
7,2.93,Cc1nn(-c2ccccc2Cl)nc1NC(=O)c1ccccc1C(F)(F)F [Compound I-2-21]
8,4.54,Cc1nn(-c2ccccc2Cl)nc1N(C(=O)c1ccccc1C(F)(F)F)C(=O)c1ccccc1C(F)(F)F [Compound I-2-22]
9,3.64,O=C(c1cccnc1Cl)N(C(=O)c1cccnc1Cl)c1nn(-c2ccccc2Br)nc1Cl [Compound I-2-23]
10,2.92,Cc1nn(-c2ccccc2Cl)nc1NC(=O)c1ccccc1I [Compound I-2-24]
11,4.68,Cc1nn(-c2ccccc2Cl)nc1N(C(=O)c1ccccc1I)C(=O)c1ccccc1I [Compound I-2-25]
12,3.22,O=C(Nc1nn(-c2ccccc2Br)nc1Cl)c1ccccc1C(F)(F)F [Compound I-2-26]
13,4.87,O=C(c1ccccc1C(F)(F)F)N(C(=O)c1ccccc1C(F)(F)F)c1nn(-c2ccccc2Br)nc1Cl [Compound I-2-27]
14,2.77,O=C(Nc1nn(-c2ccccc2Br)nc1Cl)c1cccnc1C(F)(F)F [Compound I-2-28]
15,3.09,O=C(Nc1nn(-c2ccccc2Br)nc1Cl)c1ccccc1Cl [Compound I-2-29]
16,4.87,O=C(c1ccccc1Cl)N(C(=O)c1ccccc1Cl)c1nn(-c2ccccc2Br)nc1Cl [Compound I-2-30]
17,2.46,O=C(Nc1nn(-c2ccccc2Br)nc1Cl)c1cccnc1Cl [Compound I-2-31]
18,3.24,O=C(Nc1nn(-c2ccccc2Br)nc1Cl)c1ccccc1I [Compound I-2-32]
19,3.06,O=C(Nc1cnn(-c2ccccc2Br)n1)c1ccccc1I [Compound I-2-33]
20,5.06,O=C(c1ccccc1I)N(C(=O)c1ccccc1I)c1nn(-c2ccccc2Br)nc1Cl [Compound I-2-34]
21,2.71,O=C(Nc1cnn(-c2c(F)cccc2F)n1)c1ccccc1Br [Compound I-2-36]
22,2.09,O=C(Nc1cnn(-c2c(F)cccc2F)n1)c1cccnc1Br [Compound I-2-37]
23,2.66,O=C(Nc1cnn(-c2c(F)cccc2F)n1)c1ccccc1Cl [Compound I-2-38]
24,2.90,O=C(Nc1cnn(-c2c(F)cccc2F)n1)c1ccsc1I [Compound I-2-40]
25,3.02,O=C(Nc1cnn(-c2ccc(C(F)(F)F)cn2)n1)c1ccccc1C(F)(F)F [Compound I-2-42]
26,3.04,O=C(Nc1cnn(-c2ccc(C(F)(F)F)cn2)n1)c1ccccc1I [Compound I-2-43]

row,log P,Compound
1,2.18,O=C(Nc1cnn(-c2ncccc2F)n1)c1ccccc1C(F)(F)F [Compound I-2-44]
2,1.76,O=C(Nc1cnn(-c2ncccc2F)n1)c1cccnc1C(F)(F)F [Compound I-2-45]
3,2.04,O=C(Nc1cnn(-c2ncccc2F)n1)c1ccccc1Br [Compound I-2-46]
4,1.49,O=C(Nc1cnn(-c2ncccc2F)n1)c1cccnc1Br [Compound I-2-47]
5,1.99,O=C(Nc1cnn(-c2ncccc2F)n1)c1ccccc1Cl [Compound I-2-48]
6,2.20,O=C(Nc1cnn(-c2ncccc2F)n1)c1ccsc1I [Compound I-2-50]
7,3.74,O=C(c1ccccc1C(F)(F)F)N(C(=O)c1ccccc1C(F)(F)F)c1cnn(-c2ncccc2Cl)n1 [Compound I-2-52]
8,2.33,Cc1nn(-c2ncccc2Cl)nc1NC(=O)c1ccccc1C(F)(F)F [Compound I-2-53]
9,3.93,Cc1nn(-c2ncccc2Cl)nc1N(C(=O)c1ccccc1C(F)(F)F)C(=O)c1ccccc1C(F)(F)F [Compound I-2-54]
10,1.95,O=C(Nc1cnn(-c2ncccc2Cl)n1)c1cccnc1C(F)(F)F [Compound I-2-55]
11,1.66,O=C(Nc1cnn(-c2ncccc2Cl)n1)c1cccnc1Cl [Compound I-2-56]
12,2.48,O=C(Nc1cnn(-c2ncccc2Cl)n1)c1c(F)cccc1C(F)(F)F [Compound I-2-57]
13,2.28,Cc1nn(-c2ncccc2Cl)nc1NC(=O)c1ccccc1I [Compound I-2-59]
14,2.57,O=C(Nc1nn(-c2ncccc2Cl)nc1Cl)c1ccccc1I [Compound I-2-60]
15,4.03,Cc1nn(-c2ncccc2Cl)nc1N(C(=O)c1ccccc1I)C(=O)c1ccccc1I [Compound I-2-61]
16,2.77,O=C(Nc1cnn(-c2cc(F)cnc2F)n1)c1ccccc1C(F)(F)F [Compound I-2-62]
17,2.54,O=C(Nc1cnn(-c2ncc(Cl)cc2Cl)n1)c1cccnc1C(F)(F)F [Compound I-2-64]
18,3.04,O=C(Nc1cnn(-c2ncc(Cl)cc2Cl)n1)c1ccccc1I [Compound I-2-65]
19,2.43,O=C(Nc1cnn(-c2ncc(F)cc2F)n1)c1ccccc1C(F)(F)F [Compound I-2-66]
20,2.00,O=C(Nc1cnn(-c2ncc(F)cc2F)n1)c1cccnc1C(F)(F)F [Compound I-2-67]
21,2.27,O=C(Nc1cnn(-c2ncc(F)cc2F)n1)c1ccccc1Br [Compound I-2-68]
22,1.71,O=C(Nc1cnn(-c2ncc(F)cc2F)n1)c1cccnc1Br [Compound I-2-69]
23,2.22,O=C(Nc1cnn(-c2ncc(F)cc2F)n1)c1ccccc1Cl [Compound I-2-70]
24,2.51,O=C(Nc1cnn(-c2ncc(F)cc2F)n1)c1c(F)cccc1C(F)(F)F [Compound I-2-71]
